Experimental data taken from ChEMBL document CHEMBL1151286, “Nostocarboline: isolation and synthesis of a new cholinesterase inhibitor from Nostoc 78-12A” (J Nat Prod, 2005).
“And” between values parts separate entries of the source, which are not always exact repeats. Identical values can stand only once.

Target: Cholinesterase (Equus caballus, UniProt P81908)
Assay: Inhibition of horse serum BChE by Ellman's reaction

Sequence of Cholinesterase (P81908 whole entry): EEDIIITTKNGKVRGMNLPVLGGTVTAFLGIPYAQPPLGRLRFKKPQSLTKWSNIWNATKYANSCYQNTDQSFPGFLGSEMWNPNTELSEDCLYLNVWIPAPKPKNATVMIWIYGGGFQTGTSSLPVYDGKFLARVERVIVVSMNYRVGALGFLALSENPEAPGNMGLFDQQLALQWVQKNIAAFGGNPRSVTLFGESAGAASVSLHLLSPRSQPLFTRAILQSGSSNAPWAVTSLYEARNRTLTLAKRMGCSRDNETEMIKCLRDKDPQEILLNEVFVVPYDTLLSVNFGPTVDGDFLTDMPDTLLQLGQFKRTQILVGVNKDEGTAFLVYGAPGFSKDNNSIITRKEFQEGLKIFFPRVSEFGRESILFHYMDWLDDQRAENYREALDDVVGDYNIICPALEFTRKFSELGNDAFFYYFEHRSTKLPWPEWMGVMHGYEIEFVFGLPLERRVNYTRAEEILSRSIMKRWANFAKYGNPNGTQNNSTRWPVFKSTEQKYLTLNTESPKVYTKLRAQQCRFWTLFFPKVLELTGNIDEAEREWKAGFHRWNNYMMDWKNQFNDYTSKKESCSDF

## C[n+]1ccc2c(c1)[nH]c1ccccc12
  IC50: 11.2 µM

## C[n+]1ccc2c(c1)[nH]c1ccc(Cl)cc12 [NOSTOCARBOLINE]
  IC50: 19.4 µM and 13.2 µM
